In one data set the test system is mouse uPA. As to the kind of experiment: Mouse specific uPA ELISA of xenograft tumour homogenates. In kind it is in vivo. To be noted: versus tumours from mock-treated animals, 125 mg/kg BB-94 daily. From the text:
Tumours from untreated control mice and from mice receiving BB94 were homogenized and assayed for mouse uPA content using a mouse specific uPA ELISA.

Data set [1] has as its system plg^+/+ mice. The conditions noted are these: 2.5 mg i.p. daily, 5 mice.
Another data set deals with wild-type mice. The data set can be described thus: Keratinocyte migration distance in skin wounds (morphometry). In kind it is in vivo, mouse. The conditions noted are these: 100 mg/kg daily for 7 days after skin wounding. As for the experimental part: (§1) Keratinocyte migration. […] 18-20 sections of wound tissue from each group of mice were then analyzed microscopically, and the keratinocyte migration distance along the base of the epidermal outgrowth from the wound edge to the tip of the wedge (see Rømer et al., FIG. 2) was measured blindly by computer-assisted morphometry.

A further data set has as its system Plg-deficient mice. The data set is described as above. In kind it is in vivo, mouse. To be noted: 100 mg/kg daily for 7 days after skin wounding. As for the experimental part: as §1
For the next data set, the target named is plasmin (Homo sapiens, UniProt P00747). To be noted: very weak inhibition; a million-fold higher than for the metalloproteases; cited from earlier work.
In another data set the test system is Lewis lung carcinoma. As for the experimental part:
Four groups of 17 mice were injected subcutaneously with Lewis lung carcinoma tissue mince (approx. 1.0×10^6 cells). The first group (CON) were treated only with buffered vehicle. The second group (TA/AP) was treated i.p. three times each day with a mixture of tranexamic acid (TA) and aprotinin (AP), so that the total dosage was 10 mg TA and 13,000 KIU AP per day per mouse. […] The tumour growth in the mice was monitored every 2-3 days by careful measurement with callipers of the longest and shortest axes of the palpable tumours, and the calculated volume was plotted as a function of time. The growth rate of the tumours was followed until death and the survival of mice in the four groups was analyzed by a Kaplan-Meier plot. Histological sections from the primary murine Lewis Lung carcinoma were analyzed by in situ hybridization for the expression of stromelysin-1 and gelatinase-B.

The test system of data set [2] is gelatinase B, collagenase-3, stromelysin-1, gelatinase A mRNA. The data set can be described thus: MMP mRNA expression in wound tissue by in situ hybridization. In kind it is in vivo, mouse. The conditions noted are these: wild-type and Plg-deficient mice, 100 mg/kg daily, versus mock treated.
Description: In parallel experiments, the mice were sacrificed and tissue sections prepared from the wound site. The tissue sections were analyzed for expression of various metalloproteases by in situ hybridisation and for matrix content by staining.
In situ hybridization. […] The mouse macrophage elastase expression system was investigated with a single probe, while the expression of all other metalloproteases were investigated with two different non-overlapping probes, which in all cases gave identical results.
The test system of data set [3] is plg^+/+ mice. The data set can be described thus: Post-partum uterine involution (uterus weight). In kind it is in vivo, mouse. From the text:
(§2) Treatment was continued to 4 days post-partum and on the fifth day post-partum the mice were sacrificed and the uteri removed, dissected free of adhering fatty tissue, and blotted dry before weighing.

The test system of data set [4] is plg^−/− mice. As to the kind of experiment: Post-partum uterine involution (uterus weight). In kind it is in vivo, mouse.
Description: as §2

A further data set has as its target stromelysin-1 (MMP-3) (Homo sapiens, UniProt P08254). To be noted: cited from earlier work.
Data set [5] concerns the target angiotensin converting enzyme (ACE) (Homo sapiens, UniProt P12821). To be noted: very weak inhibition; a million-fold higher than for the metalloproteases; cited from earlier work.
Data set [6] deals with plg^−/− mice. The source says:
In the evening, female plg^−/− mice (8-10 weeks old) were placed in cages together with male plg^−/− mice of proven potency.

Data set [7] concerns plg^+/+ mice. The data set can be described thus: Post-lactational mammary gland involution (gland weight). In kind it is in vivo, mouse. From the text: (§3) After mice had given birth, the litter was taken away from the mother and adjusted to eight pups, adding pups from other mothers if necessary in order to provide a constant feeding load on each mother. Lactation and feeding with the eight pups were allowed to proceed for 7-8 days, at which time the litter was removed (day 1).

For data set [8], the system named is plg^−/− mice. The data set is described as above. In kind it is in vivo, mouse.
Description: as §3

For data set [9], the system named is plg^+/+ mice. To be noted: Galardin 2.5 mg, aprotinin 13,000 KIU and tranexamic acid 10 mg per day i.p.
Description: In the evening, wild-type (plg^+/+) female mice were placed together with plg^+/+ male mice of proven potency. Bach morning the females were closely examined for the characteristic vaginal “plugs” formed after mating, and the mated females were removed and allocated to four groups.
Data set [10] relates to plg^+/+ mice. As to the kind of experiment: Wound healing, 20 mm full thickness skin incision. In kind it is in vivo, mouse. To be noted: for time after which all wounds were healed: aprotinin 13,000 KIU and/or tranexamic acid 10 mg per day in three i.p. injections, untreated 17 days.
Description: Four groups of mice were set up, consisting of 12 plg^−/− mice (group 1), another 12 plg^−/− mice (group 2), 12 plg^+/+ mice (group 3) and another 12 plg^+/+ mice (group 4). All mice were then wounded with a standardised 20 mm long, full thickness skin incision on the back.
(§4) Each day after wounding the length of the open wounds was carefully measured and recorded. The time taken for each skin wound to completely close was also noted.
(§5) The time taken for each skin wound to completely close was also noted.
as §5, §5

In data set [11] the test system is plg^−/− mice. As to the kind of experiment: Wound healing, 20 mm full thickness skin incision. In kind it is in vivo, mouse. To be noted: Galardin 2.5 mg i.p. once daily.
Description: The methods used followed those described by Rømer et al, 1996. Four groups of mice were set up, consisting of 12 plg^−/− mice (group 1), another 12 plg^−/− mice (group 2), 12 plg^+/+ mice (group 3) and another 12 plg^+/+ mice (group 4). All mice were then wounded with a standardised 20 mm long, full thickness skin incision on the back.
as §4

Data set [12] can be described thus: Biological half-life of aprotinin in blood plasma. In kind it is in vivo, mouse. The conditions noted are these: single i.p. injection of 2.1 mg. As for the experimental part:
Fifteen mice (weighing approx. 25 g each) were injected i.p. with 0.75 ml of aprotinin solution (20,000 KIU/ml; approx. 2.1 mg) and at time intervals of 0.5, 1.5, 3.0, 6.0 and 24 h thereafter three mice were sacrificed and blood collected by cardiac puncture into citrate anti-coagulant tubes. Each plasma sample was ultrafiltrated through a 20,000 MW cut-off membrane, and the aprotinin level in the ultrafiltrate was determined by inhibition of the calorimetric activity of a standard trypsin solution.

Setting [13] is: 2.5 mg/mouse i.p. daily from weaning day 2, weighed day 5, single animals.
The mark [14] stands for this setting: 2.5 mg/mouse i.p. daily, weaning day 5.

Here are results for four compounds from US20050137121A1, “Inhibition of invasive remodelling” (priority 1996, published 2005).

Where “and” joins values, the source holds several entries; their conditions need not be identical. Equal values may be shown once. Read-outs that look alike come from different tables or passages of the source. Marks after values point to notes of the source that are not given here.

Sequence of angiotensin converting enzyme (ACE) (P12821 30-1306, species assumed): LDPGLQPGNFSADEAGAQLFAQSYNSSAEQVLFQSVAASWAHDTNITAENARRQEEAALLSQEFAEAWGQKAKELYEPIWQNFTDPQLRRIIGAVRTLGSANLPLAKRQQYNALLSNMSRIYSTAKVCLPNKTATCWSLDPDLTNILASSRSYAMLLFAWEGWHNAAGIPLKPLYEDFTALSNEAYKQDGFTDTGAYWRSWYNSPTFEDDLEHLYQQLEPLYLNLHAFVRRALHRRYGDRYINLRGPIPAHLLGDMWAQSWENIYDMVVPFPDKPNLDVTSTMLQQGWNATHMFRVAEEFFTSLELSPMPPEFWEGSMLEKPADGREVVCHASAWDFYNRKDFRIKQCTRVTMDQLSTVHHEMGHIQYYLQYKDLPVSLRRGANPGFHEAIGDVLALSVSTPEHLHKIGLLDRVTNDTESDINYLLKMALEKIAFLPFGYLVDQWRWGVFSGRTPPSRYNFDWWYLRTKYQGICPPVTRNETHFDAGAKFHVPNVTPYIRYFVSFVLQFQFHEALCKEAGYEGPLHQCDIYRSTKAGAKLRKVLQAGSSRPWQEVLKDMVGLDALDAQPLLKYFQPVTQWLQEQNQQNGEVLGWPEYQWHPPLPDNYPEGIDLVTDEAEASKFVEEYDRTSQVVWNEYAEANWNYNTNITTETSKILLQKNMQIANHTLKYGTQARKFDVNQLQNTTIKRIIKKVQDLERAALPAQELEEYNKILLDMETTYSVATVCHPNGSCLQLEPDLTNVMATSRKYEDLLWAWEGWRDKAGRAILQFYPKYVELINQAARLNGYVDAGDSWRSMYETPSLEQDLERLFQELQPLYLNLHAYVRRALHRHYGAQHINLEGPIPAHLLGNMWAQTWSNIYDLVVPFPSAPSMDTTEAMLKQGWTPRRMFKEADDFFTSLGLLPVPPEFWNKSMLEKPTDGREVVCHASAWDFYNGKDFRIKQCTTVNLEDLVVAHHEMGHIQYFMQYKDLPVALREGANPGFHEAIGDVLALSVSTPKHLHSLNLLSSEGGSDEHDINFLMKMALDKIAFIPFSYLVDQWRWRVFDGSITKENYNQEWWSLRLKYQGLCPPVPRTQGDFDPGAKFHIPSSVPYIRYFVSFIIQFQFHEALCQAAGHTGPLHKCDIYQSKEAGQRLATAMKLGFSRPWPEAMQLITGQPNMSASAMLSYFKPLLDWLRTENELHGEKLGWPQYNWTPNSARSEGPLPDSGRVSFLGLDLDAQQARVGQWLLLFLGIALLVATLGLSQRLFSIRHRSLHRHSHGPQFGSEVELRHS
Sequence of plasmin (P00747 581-810 limits assumed, species assumed): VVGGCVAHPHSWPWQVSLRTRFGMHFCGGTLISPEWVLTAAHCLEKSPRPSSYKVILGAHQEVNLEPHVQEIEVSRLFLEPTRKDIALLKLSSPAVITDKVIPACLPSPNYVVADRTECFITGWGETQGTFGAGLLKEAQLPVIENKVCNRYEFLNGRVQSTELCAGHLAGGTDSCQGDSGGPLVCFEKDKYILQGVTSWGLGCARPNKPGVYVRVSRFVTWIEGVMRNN
Sequence of plasmin (P00747 97-580 partner limits assumed, species assumed): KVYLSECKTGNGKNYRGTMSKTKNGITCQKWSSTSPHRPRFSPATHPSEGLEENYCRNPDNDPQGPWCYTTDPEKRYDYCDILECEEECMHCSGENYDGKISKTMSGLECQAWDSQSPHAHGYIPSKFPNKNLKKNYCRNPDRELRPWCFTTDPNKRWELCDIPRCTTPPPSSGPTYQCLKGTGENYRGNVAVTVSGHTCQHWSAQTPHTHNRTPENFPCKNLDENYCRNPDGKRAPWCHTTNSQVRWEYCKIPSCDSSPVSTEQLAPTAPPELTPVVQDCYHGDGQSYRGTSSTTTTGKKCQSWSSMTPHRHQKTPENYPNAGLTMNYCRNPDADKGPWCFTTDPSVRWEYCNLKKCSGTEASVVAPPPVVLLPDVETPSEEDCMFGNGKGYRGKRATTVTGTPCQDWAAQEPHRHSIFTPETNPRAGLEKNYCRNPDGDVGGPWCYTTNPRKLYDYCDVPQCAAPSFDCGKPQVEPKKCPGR
Sequence of stromelysin-1 (MMP-3) (P08254 100-477, species assumed): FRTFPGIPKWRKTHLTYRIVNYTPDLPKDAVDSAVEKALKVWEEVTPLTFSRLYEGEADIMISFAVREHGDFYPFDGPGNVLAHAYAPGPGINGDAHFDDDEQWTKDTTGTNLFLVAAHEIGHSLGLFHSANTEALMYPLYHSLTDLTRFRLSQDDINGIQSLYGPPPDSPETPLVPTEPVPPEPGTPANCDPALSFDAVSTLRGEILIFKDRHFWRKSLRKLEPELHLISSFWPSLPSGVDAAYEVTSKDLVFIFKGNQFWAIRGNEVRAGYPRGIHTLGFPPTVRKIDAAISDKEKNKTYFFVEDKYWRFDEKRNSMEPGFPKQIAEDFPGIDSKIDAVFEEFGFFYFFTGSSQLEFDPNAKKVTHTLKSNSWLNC

Take `CNC(=O)[C@H](Cc1ccccc1)NC(=O)[C@H](CC(C)C)[C@H](CSc1cccs1)C(=O)NO` [BB-94, Batimastat]: the “upregulation of mouse uPA in the tumours” value in the data set on mouse uPA is roughly 2 fold.

On to `CNC(=O)[C@H](Cc1c[nH]c2ccccc12)NC(=O)[C@@H](CC(=O)NO)CC(C)C` [Galardin™], for which the Pregnancies in the data set on plg^+/+ mice [1] was 3; in the data set with plg^−/− mice [6] (2.5 mg i.p. daily day 3.5 to 18.5, 4 mice) it was 1*. Besides, the “keratinocyte migration distance (mean value±standard deviation)” value in the data set with wild-type mice amounted to 268±80 arbitrary units; with Plg-deficient mice, 208±60 arbitrary units. Besides, the Ki result at plasmin is “in the millimolar range”; on stromelysin-1 (MMP-3), 30 nM; in data set [5] it was “in the millimolar range”. Moreover, the “survival of the tumour-bearing mice” value in the data set with Lewis lung carcinoma (10 mg TA and 13,000 KIU AP per day i.p., 1.8 mg Galardin per day per mouse) was “considerable prolongation”. Also, the “long-term survival (mice per group of 17)” value in the data set with Lewis lung carcinoma (treatment stopped day 50) is “no long-term survivors”. Moreover, the “expression of gelatinase A and stromelysin-3 mRNA in granulation tissue fibroblasts” value in data set [2] was “upregulated”. Also, the “expression of gelatinase B, collagenase-3 and stromelysin-1 mRNA in leading-edge keratinocytes” value in data set [2] was “dramatically upregulated”. The “Mean Weight ± SD (uterus)” value in the data set on plg^+/+ mice [3] (90 mg/kg i.p. daily, fifth day post-partum) was determined as 221 ± 65.3 mg; in the data set on plg^−/− mice [4] (plg^−/− mice, 90 mg/kg i.p. daily, fifth day post-partum), 337 ± 70.9 mg. The “Weight (uterus)” value is 288 mg and 285 mg and 135 mg and 206 mg and 192 mg in the data set with plg^+/+ mice [3] (90 mg/kg i.p. daily, fifth day post-partum, single animals, 90 mg/kg); 311 mg and 408 mg and 236 mg and 328 mg and 401 mg in the data set with plg^−/− mice [4] (plg^−/− mice, 90 mg/kg i.p. daily, fifth day post-partum, single animals, 90 mg/kg). Moreover, the “change in 5 day postpartum uterine weight versus control” value in the data set on plg^+/+ mice [3] (90 mg/kg, p=0.158) is given as “did not produce a significant increase”; in the data set on plg^−/− mice [4] (Plg^−/− mice, 90 mg/kg, p=0.012), “significant increase”. Moreover, the “% pregnant” value with plg^−/− mice [6] (2.5 mg i.p. daily day 3.5 to 18.5) is given as 25%; in the data set with plg^−/− mice [6] (2.5 mg i.p. daily day 3.5 to 18.5, listed as G) it was 25* %. The “Gland 4 Weight” value in the data set with plg^+/+ mice [7] (setting [13]) was 188 mg and 198 mg and 146 mg; in the data set with plg^−/− mice [8] (setting [13]), 262 mg and 342 mg and 251 mg. The figures for the “Mean Weight (gland 4)” value in the data set on plg^+/+ mice [7] (setting [14]) and in the data set with plg^−/− mice [8] (setting [14]) were 177 mg and 285 mg, respectively. Further, the “% Control (gland weight)” value with plg^+/+ mice [7] (control = plg^+/+ untreated) worked out at 162%; in the data set with plg^−/− mice [8] (control = plg^+/+ untreated), 262%. For the same compound, the production of offspring result in the data set with plg^+/+ mice [9] is recorded as “unaffected”. In the data set on plg^+/+ mice [10] (Galardin 2.5 mg i.p. once daily), the “wounds healed after 38 days” value is reported as 22%. Further, the “healed wounds 38 days after wounding” value in the data set with plg^−/− mice [11] is given as “none”. In the data set with plg^−/− mice [11], the “healed wounds after 80 days” value is given as “none”.

In the case of `NC[C@H]1CC[C@H](C(=O)O)CC1` [tranexamic acid], the “time after which all wounds were healed” value with plg^+/+ mice [10] was 17 days.

On to aprotinin, for which the “time after which all wounds were healed” value in the data set with plg^+/+ mice [10] came out at 24 days. In addition, the half life result in data set [12] (mouse plasma) was “approx. 3 h”. Moreover, the plasma level result in [12] (mouse) is “approx. 25 μg/ml”.

The term Ki denotes a measure of affinity in units of concentration, obtained from inhibition or displacement.
